US20190185518A9, “WARHEAD-CONTAINING PEPTIDOMIMETIC MACROCYCLES AS MODULATORS OF BFL-1” (AILERON Therapeutics, Inc., priority 2017, published 2019)
Positions of bridges follow the written chain, without caps; N, C: chain ends. Non-standard residues stand in square brackets, D forms with d. Residues, ends and D or L forms follow the SMILES beside them. Phe(4-CF3) = N[C@@H](Cc1ccc(C(F)(F)F)cc1)C(=O)O; Phe(4-tBu) = CC(C)(C)c1ccc(C[C@H](N)C(=O)O)cc1; Igl = N[C@H](C(=O)O)C1Cc2ccccc2C1; R8 = C=CCCCCCC[C@@](C)(N)C(=O)O; Cha = N[C@@H](CC1CCCCC1)C(=O)O; S5 = C=CCCC[C@](C)(N)C(=O)O

The compounds below were run against Bcl-2 (Homo sapiens, UniProt P10415) (assay: Ki determination for Bcl-2 (BCL-2 family binding spectrum)). Conditions: read-out: Ki BCL-2.
Bcl-2, sequence (P10415 whole entry, species assumed): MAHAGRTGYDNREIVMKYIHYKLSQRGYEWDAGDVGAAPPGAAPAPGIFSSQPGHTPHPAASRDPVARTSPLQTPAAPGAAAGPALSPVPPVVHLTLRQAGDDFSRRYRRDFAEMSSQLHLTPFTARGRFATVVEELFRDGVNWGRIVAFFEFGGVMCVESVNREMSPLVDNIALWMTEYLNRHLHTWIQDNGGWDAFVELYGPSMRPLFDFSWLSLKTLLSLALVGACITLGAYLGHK
Text: To assess the binding and affinity of compounds that antagonize the interaction between a peptide and an acceptor protein, a fluorescence polarization assay (FPA) utilizing a fluoresceinated peptidomimetic macrocycle derived from a peptidomimetic precursor sequence is used, for example. The FPA technique measures the molecular orientation and mobility using polarized light and fluorescent tracer. […] A compound that antagonizes the interaction between the fluoresceinated peptidomimetic macrocycle and an acceptor protein will be detected in a competitive binding FPA experiment.
For example, putative antagonist compounds (1 nM to 1 mM) and a fluoresceinated peptidomimetic macrocycle (25 nM) are incubated with the acceptor protein (50 nM) in binding buffer (140 mM NaCl, 50 mM Tris-HCL, pH 7.4) for 30 minutes at room temperature. Antagonist binding activity is measured, for example, by fluorescence polarization on a luminescence spectrophotometer (e.g. Perkin-Elmer LS50B). Kd values may be determined by nonlinear regression analysis using, for example, Graphpad Prism software (GraphPad Software, Inc., San Diego, Calif.).

Row | Ki [nM] | Compound
1 | 23.5 | CC[C@H](C)[C@H](NC(C)=O)C(=O)N[C@@H](Cc1c[nH]c2ccccc12)C(=O)N[C@H](C(=O)N[C@@H](C)C(=O)N[C@@H](CCC(N)=O)C(=O)N[C@@H](CCC(=O)O)C(=O)N[C@@H](CC(C)C)C(=O)N[C@@H](CCCNC(=N)N)C(=O)N[C@]1(C)CCCCCCC=CCCC[C@@](C)(C(=O)N[C@@H](Cc2ccc(O)cc2)C(=O)N[C@@H](Cc2ccc(O)cc2)C(=O)N[C@@H](C)C(=O)N[C@@H](CCCNC(=N)N)C(=O)N[C@@H](CCCNC(=N)N)C(N)=O)NC(=O)[C@H](CC(N)=O)NC(=O)[C@H](Cc2ccccc2)NC(=O)[C@H](CCC(=O)O)NC(=O)[C@H](CC(=O)O)NC(=O)CNC(=O)[C@H]([C@@H](C)CC)NC1=O)[C@@H](C)CC [compound 1629]
2 | > 1000 | CC[C@H](C)[C@H](NC(C)=O)C(=O)N[C@@H](Cc1c[nH]c2ccccc12)C(=O)N[C@@H](Cc1ccc(C(C)(C)C)cc1)C(=O)N[C@@H](C)C(=O)N[C@@H](CCC(N)=O)C(=O)N[C@@H](C)C(=O)N[C@@H](CC(C)C)C(=O)N[C@@H](CCCNC(=N)N)C(=O)N[C@]1(C)CCCCCCC=CCCC[C@@](C)(C(=O)N[C@@H](Cc2ccc(O)cc2)C(=O)N[C@@H](Cc2ccc(O)cc2)C(=O)N[C@@H](C)C(N)=O)NC(=O)[C@H](CC(N)=O)NC(=O)[C@H](Cc2ccccc2)NC(=O)[C@H](C)NC(=O)[C@H](CC(=O)O)NC(=O)CNC(=O)[C@H]([C@@H](C)CC)NC1=O [compound 1684] (Ac-IW[Phe(4-tBu)]AQALR[R8]IGDAFN[S5]YYA-NH2; staple 9-16)
3 | > 1000 | CC[C@H](C)[C@H](NC(C)=O)C(=O)N[C@@H](Cc1c[nH]c2ccccc12)C(=O)N[C@H](C(=O)N[C@@H](C)C(=O)N[C@@H](CCC(N)=O)C(=O)N[C@@H](C)C(=O)N[C@@H](CC1CCCCC1)C(=O)N[C@@H](CCCNC(=N)N)C(=O)N[C@]1(C)CCCCCCC=CCCC[C@@](C)(C(=O)N[C@@H](Cc2ccc(O)cc2)C(=O)N[C@@H](Cc2ccc(O)cc2)C(=O)N[C@@H](C)C(N)=O)NC(=O)[C@H](CC(N)=O)NC(=O)[C@H](Cc2ccccc2)NC(=O)[C@H](C)NC(=O)[C@H](CC(=O)O)NC(=O)CNC(=O)[C@H]([C@@H](C)CC)NC1=O)[C@@H](C)CC [compound 1687] (Ac-IWIAQA[Cha]R[R8]IGDAFN[S5]YYA-NH2; staple 9-16)
4 | > 1000 | CC[C@H](C)[C@H](NC(C)=O)C(=O)N[C@@H](Cc1c[nH]c2ccccc12)C(=O)N[C@H](C(=O)N[C@@H](C)C(=O)N[C@@H](CCC(N)=O)C(=O)N[C@@H](C)C(=O)N[C@H](C(=O)N[C@@H](CCCNC(=N)N)C(=O)N[C@]1(C)CCCCCC/C=C\CCC[C@@](C)(C(=O)N[C@@H](Cc2ccc(O)cc2)C(=O)N[C@@H](Cc2ccc(O)cc2)C(=O)N[C@@H](C)C(N)=O)NC(=O)[C@H](CC(N)=O)NC(=O)[C@H](Cc2ccccc2)NC(=O)[C@H](C)NC(=O)[C@H](CC(=O)O)NC(=O)CNC(=O)[C@H]([C@@H](C)CC)NC1=O)C1Cc2ccccc2C1)[C@@H](C)CC [compound 1693] (Ac-IWIAQA[Igl]R[R8]IGDAFN[S5]YYA-NH2; staple (Z) 9-16)
5 | > 1000 | CC[C@H](C)[C@H](NC(C)=O)C(=O)N[C@@H](Cc1c[nH]c2ccccc12)C(=O)N[C@H](C(=O)N[C@@H](C)C(=O)N[C@@H](CCC(N)=O)C(=O)N[C@@H](C)C(=O)N[C@@H](Cc1ccc(C(F)(F)F)cc1)C(=O)N[C@@H](CCCNC(=N)N)C(=O)N[C@]1(C)CCCCCCC=CCCC[C@@](C)(C(=O)N[C@@H](Cc2ccc(O)cc2)C(=O)N[C@@H](Cc2ccc(O)cc2)C(=O)N[C@@H](C)C(N)=O)NC(=O)[C@H](CC(N)=O)NC(=O)[C@H](Cc2ccccc2)NC(=O)[C@H](C)NC(=O)[C@H](CC(=O)O)NC(=O)CNC(=O)[C@H]([C@@H](C)CC)NC1=O)[C@@H](C)CC [compound 1694] (Ac-IWIAQA[Phe(4-CF3)]R[R8]IGDAFN[S5]YYA-NH2; staple 9-16)
